Legend:
Neuromedin-K receptor [1] = molecular target: T1, Neuromedin-K receptor (Homo sapiens, UniProt P29371); assay: Competitive Binding Assay: The affinity of compounds of the invention for the human NK-3 receptor was determined by measuring the ability of compounds of the invention to competitively and reversibly displace a well-characterized NK-3 radioligand in a concentration-dependent manner.3H-SB222200 Binding Competition Assay with Human NK-3 ReceptorThe ability of compounds of the invention to inhibit the binding of the NK-3 receptor selective antagonist 3H-SB222200 was assessed by an in vitro radioligand binding assay. Membranes were prepared from Chinese hamster ovary recombinant cells stably expressing the human NK-3 receptor. The membranes were incubated with 5 nM 3H-SB222200 (ARC) in a HEPES 25 mM/NaCl 0.1M/CaCl2 1 mM/MgCl2 5 mM/BSA 0.5%/Saponin 10 μg/ml buffer at pH 7.4 and various concentrations of compounds of the invention. The amount of 3H-SB222200 bound to the receptor was determined after filtration by the quantification of membrane associated radioactivity using the TopCount-NXT reader (Packard).
T1 sequence (P29371 whole entry): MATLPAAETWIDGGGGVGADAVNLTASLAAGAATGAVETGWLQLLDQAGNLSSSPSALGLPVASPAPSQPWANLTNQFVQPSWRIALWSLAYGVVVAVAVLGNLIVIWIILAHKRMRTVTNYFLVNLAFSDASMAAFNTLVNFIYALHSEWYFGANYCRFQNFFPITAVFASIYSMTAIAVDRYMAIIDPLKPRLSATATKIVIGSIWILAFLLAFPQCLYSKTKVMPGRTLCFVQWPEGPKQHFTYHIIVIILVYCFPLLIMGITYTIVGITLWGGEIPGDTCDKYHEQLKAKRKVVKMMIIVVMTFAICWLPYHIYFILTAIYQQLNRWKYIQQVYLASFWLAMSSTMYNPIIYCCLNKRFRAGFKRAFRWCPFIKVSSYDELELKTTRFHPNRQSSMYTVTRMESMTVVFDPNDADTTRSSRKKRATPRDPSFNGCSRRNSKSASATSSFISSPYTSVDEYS

Neuromedin-K receptor [2] = molecular target: T1, Neuromedin-K receptor; assay: Functional Assay: Chinese Hamster Ovary recombinant cells expressing the human NK-3 receptor and a construct that encodes the photoprotein apoaequorin were used for this assay. The antagonist activity of compounds of the invention is measured following pre-incubation (3 minutes) of the compound (at various concentrations) with the cells, followed by addition of the reference agonist (NKA) at a final concentration equivalent to the EC80 (3 nM) and recording of emitted light (FDSS 6000 Hamamatsu) over the subsequent 90-second period. The intensity of the emitted light is integrated using the reader software. Compound antagonist activity is measured based on the concentration-dependent inhibition of the luminescence response to the addition of Neurokinin A.

SMILES	Ki (Neuromedin-K receptor [1])	IC50 (Neuromedin-K receptor [2])
CCC1c2nnc(-c3nc(C)ns3)n2CCN1C(=O)c1ccc(F)cc1 (racemic)	150 nM	220 nM
Cc1nsc(-c2nnc3n2CCN(C(=O)c2ccc(F)cc2)C3CCO)n1 (racemic)	59 nM	170 nM

Reference: ChEMBL document CHEMBL3886889, “Substituted [1,2,4]triazolo[4,3-a]pyrazines as selective NK-3 receptor antagonists” (2016)
